Experimental findings from US10125129B2 (priority 2016, dated 2018) are described below.

In data set [1] the test system is mice. Kind of data set: Hot water tail-flick tolerance evaluation, daily dosing. The class given is in vivo.
Data set [2] deals with mice. In words: Hot water tail-flick cumulative dose-response (s.c.). The class given is in vivo. The conditions noted are these: Mus musculus, sc, 0.5 h, cumulative s.c. doses 1-30 mg/kg, latency 30 min after each dose.
The test system of a further data set is Sprague Dawley rats. Kind of data set: Conditioned place preference assay. The note with it: i.p.
Data set [3] concerns mice. In words: Accelerating rotarod performance assay. The conditions noted are these: 10 mg/kg i.p.; compared to kurkinorin and vehicle. On the technique in general: In the rotarod test animals must keep their balance on a rotating rod.

For the compound `CN1CC[C@]23c4c5ccc(O)c4O[C@H]2[C@@H](O)C=C[C@H]3[C@H]1C5` [Morphine, morphine, reference compound], the “antinociceptive effects over days of daily administration (tolerance)” value with mice [1] (7 mg/kg i.p. daily, days 1, 3, 5, 6, mice) is “significant antinociceptive effects on days 1, 3, and 5 but not day 6”. For the same compound, the “antinociceptive effects on day 6 challenge after daily vehicle” value with mice [1] (daily vehicle treated mice challenged on day 6) was “antinociceptive effects similar to day 1”. It took a dose of 9.86 mg/kg to reach the 50% effect level in the data set with mice [2] (ED50). For the same compound, the conditioned place preference result in the data set on Sprague Dawley rats (5 mg/kg) and with Sprague Dawley rats (10 mg/kg) was “significant place preference” throughout. Further, in the data set with mice [3], the “motor coordination (rotarod)” value was “significant decrease in motor coordination”.
